Patent EP2505659A1, “Methods for the identification of dioxygenase interacting molecules and for the purification of dioxygenase proteins” (CELLZOME AG, priority 2011, dated 2012)
Where a name gives a salt, the structure may show the parent alone.

What was measured:
LEPREL2 [1] = molecular target: T1, LEPREL2 (Homo sapiens, UniProt Q8IVL6); test: Bead competition binding assay, immobilized compound B, HL-60 nuclear extract; conditions: 200 µM free compound B, read-out: Fold change versus DMSO control
T1 construct: capturing and identification of dioxygenases from nuclear protein extracts; endogenous in cells
T1 sequence (Q8IVL6 21-736): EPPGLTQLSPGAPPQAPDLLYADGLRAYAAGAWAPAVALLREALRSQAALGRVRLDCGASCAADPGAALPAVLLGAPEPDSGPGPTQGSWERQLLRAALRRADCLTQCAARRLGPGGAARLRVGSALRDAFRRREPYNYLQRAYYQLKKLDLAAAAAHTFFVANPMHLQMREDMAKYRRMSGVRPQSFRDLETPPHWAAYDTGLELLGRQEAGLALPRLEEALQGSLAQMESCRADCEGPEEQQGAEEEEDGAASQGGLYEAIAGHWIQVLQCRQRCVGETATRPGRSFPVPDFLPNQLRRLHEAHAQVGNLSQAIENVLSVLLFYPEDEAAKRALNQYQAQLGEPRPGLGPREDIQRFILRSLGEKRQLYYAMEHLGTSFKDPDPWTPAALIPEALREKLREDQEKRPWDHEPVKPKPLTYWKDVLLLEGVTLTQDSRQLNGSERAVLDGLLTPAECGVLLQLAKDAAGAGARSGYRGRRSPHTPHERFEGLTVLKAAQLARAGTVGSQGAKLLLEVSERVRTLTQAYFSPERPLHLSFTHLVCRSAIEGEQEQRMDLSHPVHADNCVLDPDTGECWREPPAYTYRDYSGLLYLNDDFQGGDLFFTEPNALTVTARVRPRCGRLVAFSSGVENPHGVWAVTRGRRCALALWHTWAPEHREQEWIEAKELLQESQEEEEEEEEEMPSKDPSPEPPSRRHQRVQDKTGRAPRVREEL
Experimental: (§1) The preparation of HL-60 nuclear lysates, capturing of dioxygenases from cell lysate and the protein identification by Mass Spectrometry was performed as described in example 2.
(§2) Seven different dioxygenases were identified. […] Table 7: Identified dioxygenases with compound B from HL-60 nuclear extract

EGLN1 [2] = molecular target: T2, EGLN1 (Homo sapiens, UniProt Q9GZT9); test: as above; conditions: 200 µM free compound B, read-out: Fold change versus DMSO control
T2 construct: endogenous in cells
T2 sequence (Q9GZT9 whole entry): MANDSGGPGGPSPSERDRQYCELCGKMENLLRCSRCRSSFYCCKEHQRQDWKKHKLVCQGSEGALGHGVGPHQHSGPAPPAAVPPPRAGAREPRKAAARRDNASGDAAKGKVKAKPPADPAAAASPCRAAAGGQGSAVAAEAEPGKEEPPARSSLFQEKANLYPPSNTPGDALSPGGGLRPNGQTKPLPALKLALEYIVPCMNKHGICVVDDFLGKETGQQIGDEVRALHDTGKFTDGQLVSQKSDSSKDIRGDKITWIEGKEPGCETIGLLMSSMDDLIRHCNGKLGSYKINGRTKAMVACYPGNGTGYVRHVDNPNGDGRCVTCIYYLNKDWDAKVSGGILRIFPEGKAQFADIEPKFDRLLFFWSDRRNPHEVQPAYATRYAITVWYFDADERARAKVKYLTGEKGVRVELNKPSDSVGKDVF
Experimental: as §1, §2

ALKBH3 [3] = molecular target: T3, ALKBH3 (Homo sapiens, UniProt Q96Q83); test: as above; conditions: 200 µM free compound B, read-out: Fold change versus DMSO control
T3 construct: capturing and identification of dioxygenases from nuclear protein extracts; endogenous in cells
T3 sequence (Q96Q83 1-286): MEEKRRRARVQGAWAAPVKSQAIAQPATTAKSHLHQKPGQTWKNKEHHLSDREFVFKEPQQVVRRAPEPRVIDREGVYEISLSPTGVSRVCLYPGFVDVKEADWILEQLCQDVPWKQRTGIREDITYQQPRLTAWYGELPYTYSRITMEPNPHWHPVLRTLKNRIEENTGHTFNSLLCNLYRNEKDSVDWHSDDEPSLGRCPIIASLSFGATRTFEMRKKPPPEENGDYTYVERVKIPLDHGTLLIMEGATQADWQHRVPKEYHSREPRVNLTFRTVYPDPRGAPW
Experimental: as §1, §2

LEPRE1 [4] = molecular target: T4, LEPRE1 (Homo sapiens, UniProt Q32P28); test: as above; conditions: 200 µM free compound B, read-out: Fold change versus DMSO control
T4 construct: capturing and identification of dioxygenases from nuclear protein extracts; endogenous in cells
T4 sequence (Q32P28 23-736): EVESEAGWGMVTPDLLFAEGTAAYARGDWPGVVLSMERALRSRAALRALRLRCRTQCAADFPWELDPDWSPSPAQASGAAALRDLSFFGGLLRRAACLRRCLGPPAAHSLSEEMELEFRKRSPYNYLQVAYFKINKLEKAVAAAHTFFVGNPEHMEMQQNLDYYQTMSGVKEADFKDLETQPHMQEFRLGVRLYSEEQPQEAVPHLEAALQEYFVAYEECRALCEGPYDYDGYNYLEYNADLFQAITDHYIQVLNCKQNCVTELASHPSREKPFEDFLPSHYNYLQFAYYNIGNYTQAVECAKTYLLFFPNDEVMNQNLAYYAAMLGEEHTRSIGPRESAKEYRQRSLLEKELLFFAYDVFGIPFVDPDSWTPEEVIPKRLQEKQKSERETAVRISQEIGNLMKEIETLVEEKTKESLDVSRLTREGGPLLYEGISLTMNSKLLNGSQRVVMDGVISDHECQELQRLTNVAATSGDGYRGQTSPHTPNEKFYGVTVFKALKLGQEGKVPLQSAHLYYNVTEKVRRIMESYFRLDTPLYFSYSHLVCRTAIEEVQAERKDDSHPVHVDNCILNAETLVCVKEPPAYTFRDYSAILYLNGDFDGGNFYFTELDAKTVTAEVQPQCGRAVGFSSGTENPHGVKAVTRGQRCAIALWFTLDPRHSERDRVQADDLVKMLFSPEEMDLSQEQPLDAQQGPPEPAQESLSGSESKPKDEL
Experimental: as §1, §2

P4HA1 [5] = molecular target: T5, P4HA1 (Homo sapiens, UniProt P13674); test: as above; conditions: 200 µM free compound B, read-out: Fold change versus DMSO control
T5 construct: endogenous in cells
T5 sequence (P13674 18-534): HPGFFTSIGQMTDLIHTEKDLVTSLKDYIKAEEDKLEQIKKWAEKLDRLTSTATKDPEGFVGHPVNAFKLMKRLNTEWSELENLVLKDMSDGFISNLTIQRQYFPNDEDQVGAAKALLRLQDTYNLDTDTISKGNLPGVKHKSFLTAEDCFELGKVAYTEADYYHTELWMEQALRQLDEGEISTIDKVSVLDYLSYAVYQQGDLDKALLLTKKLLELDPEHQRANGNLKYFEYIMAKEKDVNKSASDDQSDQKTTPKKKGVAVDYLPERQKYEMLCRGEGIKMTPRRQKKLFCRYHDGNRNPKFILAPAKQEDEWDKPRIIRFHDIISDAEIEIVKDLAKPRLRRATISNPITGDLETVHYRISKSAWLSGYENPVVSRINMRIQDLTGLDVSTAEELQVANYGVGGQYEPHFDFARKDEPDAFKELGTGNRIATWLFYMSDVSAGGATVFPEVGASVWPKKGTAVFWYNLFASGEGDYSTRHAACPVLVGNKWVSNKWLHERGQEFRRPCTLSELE
T5 sequence (P07237 18-508 partner): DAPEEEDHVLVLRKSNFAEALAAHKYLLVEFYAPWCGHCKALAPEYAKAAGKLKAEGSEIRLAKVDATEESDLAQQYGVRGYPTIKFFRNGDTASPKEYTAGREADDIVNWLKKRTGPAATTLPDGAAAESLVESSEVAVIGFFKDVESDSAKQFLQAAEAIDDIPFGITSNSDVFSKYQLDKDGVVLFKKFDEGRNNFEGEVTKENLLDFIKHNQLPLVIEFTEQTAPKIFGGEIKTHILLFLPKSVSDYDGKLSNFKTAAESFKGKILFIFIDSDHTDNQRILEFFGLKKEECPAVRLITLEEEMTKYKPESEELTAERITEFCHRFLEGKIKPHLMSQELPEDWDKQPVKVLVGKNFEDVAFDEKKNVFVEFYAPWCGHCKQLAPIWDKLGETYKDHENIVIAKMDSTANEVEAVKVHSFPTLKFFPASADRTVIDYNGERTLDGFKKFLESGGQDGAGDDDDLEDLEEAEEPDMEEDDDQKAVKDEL
Experimental: as §1, §2

OGFOD2 = molecular target: T6, OGFOD2 (Homo sapiens, UniProt Q6N063); test: as above; conditions: 200 µM free compound B, read-out: Fold change versus DMSO control
T6 construct: endogenous in cells; host or cells: HL-60 nuclear extract
T6 sequence (Q6N063 1-350): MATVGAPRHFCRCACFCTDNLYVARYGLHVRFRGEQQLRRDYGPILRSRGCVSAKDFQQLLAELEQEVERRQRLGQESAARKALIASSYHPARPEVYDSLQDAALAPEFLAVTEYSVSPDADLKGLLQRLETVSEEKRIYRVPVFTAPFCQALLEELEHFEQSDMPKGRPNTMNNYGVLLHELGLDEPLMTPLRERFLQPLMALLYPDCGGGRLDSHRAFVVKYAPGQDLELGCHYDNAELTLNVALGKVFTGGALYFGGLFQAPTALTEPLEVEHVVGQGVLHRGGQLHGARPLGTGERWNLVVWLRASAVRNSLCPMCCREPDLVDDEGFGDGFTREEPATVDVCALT
Experimental: as §1, §2

C17ORF101 [6] = molecular target: T7, C17ORF101 (Homo sapiens, UniProt Q6PK18); test: as above; conditions: 200 µM free compound B, read-out: Fold change versus DMSO control
T7 construct: capturing and identification of dioxygenases from nuclear protein extracts; endogenous in cells
T7 sequence (Q6PK18 1-331 isoform Q6PK18-2): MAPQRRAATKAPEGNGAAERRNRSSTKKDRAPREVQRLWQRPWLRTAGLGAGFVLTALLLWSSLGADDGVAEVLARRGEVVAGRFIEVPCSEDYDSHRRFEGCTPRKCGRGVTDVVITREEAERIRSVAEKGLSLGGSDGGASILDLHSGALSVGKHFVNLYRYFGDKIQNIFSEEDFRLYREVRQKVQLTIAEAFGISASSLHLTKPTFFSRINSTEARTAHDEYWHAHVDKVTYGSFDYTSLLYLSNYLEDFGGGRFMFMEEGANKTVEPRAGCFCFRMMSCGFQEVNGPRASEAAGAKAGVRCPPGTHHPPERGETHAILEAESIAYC
Experimental: as §1, §2

LEPREL2 [7] = molecular target: T1, LEPREL2; test: Bead competition binding assay, immobilized compound C, HL-60 nuclear extract; conditions: 200 µM free compound C, read-out: Fold change versus DMSO control
Experimental: as §1
(§3) Seven different dioxygenases were identified. […] Table 8: Identified dioxygenases with compound C from HL-60 nuclear extract

EGLN1 [8] = molecular target: T2, EGLN1; test: as above; conditions: 200 µM free compound C, read-out: Fold change versus DMSO control
Experimental: as §1, §3

ALKBH3 [9] = molecular target: T3, ALKBH3; test: as above; conditions: 200 µM free compound C, read-out: Fold change versus DMSO control
Experimental: as §1, §3

LEPRE1 [10] = molecular target: T4, LEPRE1; test: as above; conditions: 200 µM free compound C, read-out: Fold change versus DMSO control
Experimental: as §1, §3

PLOD1 = molecular target: T8, PLOD1 (Homo sapiens, UniProt Q02809); test: as above; conditions: 200 µM free compound C, read-out: Fold change versus DMSO control
T8 construct: capturing and identification of dioxygenases from nuclear protein extracts; endogenous in cells
T8 sequence (Q02809 19-727): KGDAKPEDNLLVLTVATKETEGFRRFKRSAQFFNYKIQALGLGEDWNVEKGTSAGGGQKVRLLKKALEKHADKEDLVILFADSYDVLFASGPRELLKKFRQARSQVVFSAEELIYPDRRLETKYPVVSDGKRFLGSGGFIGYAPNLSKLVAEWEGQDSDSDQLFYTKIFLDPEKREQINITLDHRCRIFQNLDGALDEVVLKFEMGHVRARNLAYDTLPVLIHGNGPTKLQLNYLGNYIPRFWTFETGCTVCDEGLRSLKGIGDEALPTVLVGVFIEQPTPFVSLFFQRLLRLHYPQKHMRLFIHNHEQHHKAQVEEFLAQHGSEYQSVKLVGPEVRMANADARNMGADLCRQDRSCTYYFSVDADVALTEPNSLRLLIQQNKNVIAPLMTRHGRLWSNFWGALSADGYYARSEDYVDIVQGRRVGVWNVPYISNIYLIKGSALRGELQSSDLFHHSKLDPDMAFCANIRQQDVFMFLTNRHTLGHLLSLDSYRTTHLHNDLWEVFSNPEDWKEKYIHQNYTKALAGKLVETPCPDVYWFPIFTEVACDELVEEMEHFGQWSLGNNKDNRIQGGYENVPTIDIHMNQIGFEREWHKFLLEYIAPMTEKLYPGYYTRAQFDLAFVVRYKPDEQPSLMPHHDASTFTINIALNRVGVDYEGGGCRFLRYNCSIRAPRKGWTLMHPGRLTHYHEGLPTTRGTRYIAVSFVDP
Experimental: as §1, §3

P4HA1 [11] = molecular target: T5, P4HA1; test: as above; conditions: 200 µM free compound C, read-out: Fold change versus DMSO control
Experimental: as §1, §3

C17ORF101 [12] = molecular target: T7, C17ORF101; test: as above; conditions: 200 µM free compound C, read-out: Fold change versus DMSO control
Experimental: as §1, §3

remaining binding at 200 µM (LEPREL2 [1]) [%] | remaining binding at 200 µM (EGLN1 [2]) [%] | remaining binding at 200 µM (ALKBH3 [3]) [%] | remaining binding at 200 µM (LEPRE1 [4]) [%] | remaining binding at 200 µM (P4HA1 [5]) [%] | remaining binding at 200 µM (OGFOD2) [%] | remaining binding at 200 µM (C17ORF101 [6]) [%] | remaining binding at 200 µM (LEPREL2 [7]) [%] | remaining binding at 200 µM (EGLN1 [8]) [%] | remaining binding at 200 µM (ALKBH3 [9]) [%] | remaining binding at 200 µM (LEPRE1 [10]) [%] | remaining binding at 200 µM (PLOD1) [%] | remaining binding at 200 µM (P4HA1 [11]) [%] | remaining binding at 200 µM (C17ORF101 [12]) [%] | Structure (SMILES)
13 | 52 | 56 | 67 | 24 | 18 | 52 | – | – | – | – | – | – | – | O=C(O)CNC(=O)C1C(=O)OC2(CCCNC2)OC1=O (centres unmarked) [compound B, 2-(2,4-dioxo-1,5-dioxa-8-azaspiro[5.5]undecane-3-carboxamido)acetic acid hydrochloride]
– | – | – | – | – | – | – | 12 | 19 | 45 | 48 | 51 | 10 | 24 | O=C(O)CNC(=O)C1C(=O)OC(C2CCNCC2)OC1=O (centres unmarked) [compound C, 2-(4,6-dioxo-2-(piperidin-4-yl)-1,3-dioxane-5-carboxamido)acetic acid hydrochloride]
